Data taken from ChEMBL document CHEMBL3352431, “Furazan and furoxan sulfonamides are strong α-carbonic anhydrase inhibitors and potential antiglaucoma agents” (Bioorg Med Chem, 2014).

Tests used:
Carbonic anhydrase 9 = Carbonic anhydrase 9 (Homo sapiens, UniProt Q16790); assay: Inhibition of human CA9 by CO2 hydration activity based stopped flow assay
Oryctolagus cuniculus [1] = assay: Antiglaucoma activity in New Zealand rabbit model of hypertonic saline-induced ocular hypertension assessed as reduction in intraocular pressure dosed with 50 uL of 2% compound solution and measured after 1 to 2 hrs; format: functional, Eye
Oryctolagus cuniculus [2] = assay: Antiglaucoma activity in New Zealand rabbit model of carbomer-induced ocular hypertension assessed as reduction in intraocular pressure dosed with 50 uL of 2% compound solution and measured after 3 to 4 hrs; format: functional, Eye
Oryctolagus cuniculus [3] = assay: Antiglaucoma activity in New Zealand rabbit model of hypertonic saline-induced ocular hypertension assessed as reduction in intraocular pressure dosed with 50 uL of 2% compound solution and measured after 2 hrs; format: functional, Eye

Row | SMILES | Ki (Carbonic anhydrase 9) | also measured
1 | NS(=O)(=O)c1ccc(-c2nonc2[N+](=O)[O-])cc1 | 0.0547 µM | 
2 | Cc1no[n+]([O-])c1S(N)(=O)=O | 0.0065 µM | Activity (Oryctolagus cuniculus [2]): 10 mmHg
3 | N#Cc1nonc1COc1ccc(S(N)(=O)=O)cc1 | 0.0108 µM | Activity (Oryctolagus cuniculus [3]): 8 mmHg
4 | NC(=O)c1c(COc2ccc(S(N)(=O)=O)cc2)no[n+]1[O-] | 0.0323 µM | Activity (Oryctolagus cuniculus [1]): 5 mmHg
5 | N#Cc1c(COc2ccc(S(N)(=O)=O)cc2)no[n+]1[O-] | 0.0113 µM | Activity (Oryctolagus cuniculus [3]): 8 mmHg
6 | Cc1c(S(N)(=O)=O)no[n+]1[O-] | 0.0073 µM | Activity (Oryctolagus cuniculus [2]): 10 mmHg
7 | Cc1nonc1S(N)(=O)=O | 0.0079 µM | Activity (Oryctolagus cuniculus [2]): 10 mmHg
8 | COc1nonc1S(N)(=O)=O | 0.0058 µM | 
9 | CCOc1nonc1S(N)(=O)=O | 0.0066 µM | 
10 | CC(C)COc1nonc1S(N)(=O)=O | 0.0039 µM | 
11 | NS(=O)(=O)c1ccc(-c2c([N+](=O)[O-])no[n+]2[O-])cc1 | 0.0545 µM | 
12 | CCCCOc1nonc1S(N)(=O)=O | 0.0048 µM | 

Second part, led by results:

Row | Ki (Carbonic anhydrase 9) | SMILES | also measured
13 | 0.0064 µM | NS(=O)(=O)c1ccc(Oc2no[n+]([O-])c2S(=O)(=O)c2ccccc2)cc1 | 
14 | 5.04 µM | NS(=O)(=O)c1ccc(-c2c(Sc3ccccc3)no[n+]2[O-])cc1 | 
15 | 0.0498 µM | NC(=O)c1nonc1COc1ccc(S(N)(=O)=O)cc1 | Activity (Oryctolagus cuniculus [1]): 5 mmHg
16 | 0.0479 µM | NS(=O)(=O)c1ccc(OCc2no[n+]([O-])c2-c2ccccc2)cc1 | 
17 | 0.0639 µM | NS(=O)(=O)c1ccc(-c2c(Oc3ccccc3)no[n+]2[O-])cc1 | 
18 | 0.0628 µM | NS(=O)(=O)c1ccc(-c2no[n+]([O-])c2-c2ccccc2)cc1 | 
19 | 0.0345 µM | NS(=O)(=O)c1ccc(-c2c(S(=O)(=O)c3ccccc3)no[n+]2[O-])cc1 | 
20 | 0.0071 µM | NS(=O)(=O)c1no[n+]([O-])c1-c1ccccc1 | 
21 | 0.0073 µM | NS(=O)(=O)c1ccc(Oc2nonc2S(=O)(=O)c2ccccc2)cc1 | 
22 | 0.0636 µM | NS(=O)(=O)c1ccc(-c2nonc2S(=O)(=O)c2ccccc2)cc1 | 
23 | 0.11 µM | NS(=O)(=O)c1ccc(OCc2nonc2-c2ccccc2)cc1 | 
24 | 0.0063 µM | NS(=O)(=O)c1nonc1Oc1ccccc1 | 
25 | 0.0629 µM | NS(=O)(=O)c1ccc(-c2nonc2-c2ccccc2)cc1 | 
26 | 0.0058 µM | NS(=O)(=O)c1nonc1OCc1ccccc1 | 
27 | 0.0576 µM | NS(=O)(=O)c1ccc(-c2nonc2Sc2ccccc2)cc1 | 
28 | 0.0074 µM | NS(=O)(=O)c1c(-c2ccccc2)no[n+]1[O-] | 
29 | 0.058 µM | NS(=O)(=O)c1ccc(-c2c(-c3ccccc3)no[n+]2[O-])cc1 | 
30 | 0.0711 µM | NS(=O)(=O)c1ccc(-c2nonc2Oc2ccccc2)cc1 | 
31 | 0.0063 µM | NS(=O)(=O)c1nonc1-c1ccccc1 | 
